Where two headings read alike, the source gives them in different places.
Tests used:
morningglory = assay: Test C pre-/postemergence herbicide test; format: in vivo, Ipomoea coccinea
In short: (§1)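 Plants grown and held in a greenhouse for 13 to 15 days post-spray, then rated 0–100 by visual comparison with controls. Pre treatments targeted seeds in loam and sand; post treatments targeted 1- to 4-leaf plants in peat-based potting medium.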

nutsedge, yellow = assay: Test C pre-/postemergence herbicide test; format: in vivo, Cyperus esculentus
In short: as §1

giant foxtail = assay: Test A pre-/postemergence herbicide test; format: in vivo, Setaria faberii; settings: for pest or weed control at 1000 g/ha: 1000 g ai/ha; for pest or weed control at 125 g/ha: 125 g ai/ha
In short: (§2)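 Approximately 10 days after treatment in the greenhouse, plants were compared with untreated controls and given a 0–100 visual injury rating. Applications: preemergence directed soil spray; postemergence on 2–10 cm plants at the one- to two-leaf stage.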

velvetleaf = assay: Test C pre-/postemergence herbicide test; format: in vivo, Abutilon theophrasti
In short: as §1

corn = assay: Test A pre-/postemergence herbicide test; format: in vivo, Zea mays; settings: for Corn plant response rating (crop injury, 0 = no effect, 100 = complete kill) at 1000 g/ha: 1000 g ai/ha
In short: as §2

foxtail, giant = assay: Test C pre-/postemergence herbicide test; format: in vivo, Setaria faberii
In short: as §1

wheat (winter wheat) = assay: Test C pre-/postemergence herbicide test; format: in vivo, Triticum aestivum
In short: as §1

lambsquarters = assay: Test C pre-/postemergence herbicide test; format: in vivo, Chenopodium album
Excerpt: Seeds of plant species selected from blackgrass (Alopecurus myosuroides), ryegrass, Italian (Italian ryegrass, Lolium multiflorum), wheat (winter wheat, Triticum aestivum), galium (catchweed bedstraw, Galium aparine), corn (Zea mays), crabgrass, large (large crabgrass, Digitaria sanguinalis), foxtail, giant (giant foxtail, Setaria faberii), johnsongrass (Sorghum halepense), lambsquarters (Chenopodium album), morningglory (Ipomoea coccinea), nutsedge, yellow (yellow nutsedge, Cyperus esculentus), pigweed (Amaranthus retroflexus), ragweed (common ragweed, Ambrosia elatior), soybean (Glycine max), barnyardgrass (Echinochloa crus-galli), oilseed rape (Brassica napus), waterhemp (common waterhemp, Amaranthus rudis), kochia (Kochia scoparia), oat, wild (wild oat, Avena fatua), surinam grass (Brachiaria decumbens), foxtail, green (green foxtail, Setaria viridis), goosegrass (Eleusine indica), bromegrass, downy (downy bromegrass, Bromus tectorum), nightshade (eastern black nightshade, Solanum ptycanthum), cocklebur (common cocklebur, Xanthium strumarium), cupgrass, woolly (woolly cupgrass, Eriochloa villosa), bermudagrass (Cynodon dactylon), sunflower, (common oilseed sunflower, Helianthus annuus), Russian thistle (Salsola kali) and velvetleaf (Abutilon theophrasti) were planted into a blend of loam soil and sand and treated preemergence with test chemicals formulated in a non-phytotoxic solvent mixture which included a surfactant. At the same time, plants selected from these crop and weed species and also barley (winter barley, Hordeum vulgare), […]), chickweed (common chickweed, Stellaria media), deadnettle (henbit deadnettle, Lamium amplexicaule), and canarygrass (littleseed canarygrass, Phalaris minor) were planted in pots containing Redi-Earth® planting medium (Scotts Company, 14111 Scottslawn Road, Marysville, Ohio 43041) comprising spaghnum peat moss, vermiculite, wetting agent and starter nutrients and treated with postemergence applications of test chemicals formulated in the same manner. Plants ranged in height from 2 to 18 cm (1- to 4-leaf stage) for postemergence treatments. Treated plants and controls were maintained in a greenhouse for 13 to 15 days, after which time all species were compared to controls and visually evaluated. Plant response ratings, summarized in Table C, are based on a scale of 0 to 100 where 0 is no effect and 100 is complete control. A dash (-) response means no test result.

barnyardgrass = assay: Test A pre-/postemergence herbicide test; format: in vivo, Echinochloa crus-galli; settings: for pest or weed control at 1000 g/ha: 1000 g ai/ha; for pest or weed control at 125 g/ha: 125 g ai/ha
In short: as §2

[1] = Postemergence, 31 g ai/ha, scale 0 (no effect) to 100 (complete control)
[2] = Postemergence, 62 g ai/ha, scale 0 to 100 (0 no effect, 100 complete control)
[3] = Postemergence, 125 g ai/ha, scale 0 to 100 (0 no effect, 100 complete control)
[4] = Postemergence, 250 g ai/ha, scale 0 to 100 (0 no effect, 100 complete control)
[5] = Preemergence, 62 g ai/ha, scale 0 to 100
[6] = Preemergence, 125 g ai/ha, scale 0 to 100 (0 no effect, 100 complete control)
[7] = Postemergence, 31 g ai/ha, scale 0 to 100 (0 no effect, 100 complete control)
[8] = Postemergence, 62 g ai/ha, scale 0 (no effect) to 100 (complete control)
[9] = Preemergence, 31 g ai/ha, scale 0 to 100, 0 is no effect and 100 is complete control
[10] = Preemergence, 62 g ai/ha, scale 0 to 100 (0 no effect, 100 complete control)

O=C1NCC(c2ccc(F)c(F)c2)C1C(=O)Nc1cccc(F)c1F (centres unmarked) [Compound 17, N-(2,3-difluorophenyl)-4-(3,4-difluorophenyl)-2-oxo-3-pyrrolidinecarboxamide]
10: Plant response rating, Foxtail, Giant (foxtail, giant; [4])
60%: Corn plant response rating (crop injury, 0 = no effect, 100 = complete kill) at 1000 g/ha (corn; Zea mays, post-emergence, 240 h, Postemergence, 0 to 100 scale (0 no effect, 100 complete control)) | Corn plant response rating (crop injury, 0 = no effect, 100 = complete kill) at 1000 g/ha (corn; Zea mays, pre-emergence, 240 h, Preemergence, visual rating on 0 to 100 scale (0 no effect, 100 complete control), approx. 10 days)
60: Plant response rating, Lambsquarters (lambsquarters; [5]) | Plant response rating, Lambsquarters (lambsquarters; [6])
95: Plant response rating, Foxtail, Giant (foxtail, giant; [5])
100: Plant response rating, Foxtail, Giant (foxtail, giant; [6]) | Plant response rating, Foxtail, Giant (foxtail, giant; Preemergence, 250 g ai/ha, scale 0 to 100 (0 no effect, 100 complete control))
90: Foxtail, Giant plant response rating (foxtail, giant; Preemergence, 31 g ai/ha, scale 0 to 100 (0 no effect, 100 complete control))
0: Plant response rating, Morningglory (morningglory; [1]) | Plant response rating, Morningglory (morningglory; [2]) | Plant response rating, Morningglory (morningglory; [3]) | Plant response rating, Morningglory (morningglory; [4]) | Plant response rating, Morningglory (morningglory; [5]) | Plant response rating, Nutsedge, Yellow (nutsedge, yellow; [1]) | Plant response rating, Nutsedge, Yellow (nutsedge, yellow; [2]) | Plant response rating, Nutsedge, Yellow (nutsedge, yellow; [3]) | Plant response rating, Nutsedge, Yellow (nutsedge, yellow; [4]) | Plant response rating, Nutsedge, Yellow (nutsedge, yellow; [5]) | Plant response rating, Nutsedge, Yellow (nutsedge, yellow; [6]) | Plant response rating, Velvetleaf (velvetleaf; [1]) | Plant response rating, Velvetleaf (velvetleaf; [2]) | Plant response rating, Velvetleaf (velvetleaf; [3]) | Plant response rating, Velvetleaf (velvetleaf; [4]) | Plant response rating, Velvetleaf (velvetleaf; [5]) | Plant response rating, Velvetleaf (velvetleaf; [6]) | Plant response rating, Foxtail, Giant (foxtail, giant; [1]) | Plant response rating, Foxtail, Giant (foxtail, giant; [2]) | Plant response rating, Foxtail, Giant (foxtail, giant; [3]) | Plant response rating, Wheat (wheat (winter wheat); [1]) | Plant response rating, Wheat (wheat (winter wheat); [2]) | Plant response rating, Wheat (wheat (winter wheat); [3]) | Plant response rating, Wheat (wheat (winter wheat); [4]) | Plant response rating, Wheat (wheat (winter wheat); [5]) | Plant response rating, Wheat (wheat (winter wheat); [6]) | Plant response rating, Lambsquarters (lambsquarters; [1]) | Plant response rating, Lambsquarters (lambsquarters; [2]) | Plant response rating, Lambsquarters (lambsquarters; [3]) | Plant response rating, Lambsquarters (lambsquarters; [4])
90%: pest or weed control at 1000 g/ha (giant foxtail; Setaria faberi, post-emergence, 240 h, Postemergence, 0 to 100 scale (0 no effect, 100 complete control), read-out: Plant response rating, Foxtail, Giant) | pest or weed control at 1000 g/ha (giant foxtail; Setaria faberi, pre-emergence, 240 h, Preemergence, visual rating on 0 to 100 scale (0 no effect, 100 complete control), approx. 10 days, read-out: Plant response rating, Foxtail, Giant) | pest or weed control at 1000 g/ha (barnyardgrass; Echinochloa crus-galli, post-emergence, 240 h, Postemergence, 0 to 100 scale (0 no effect, 100 complete control), read-out: Plant response rating, Barnyardgrass) | pest or weed control at 1000 g/ha (barnyardgrass; Echinochloa crus-galli, pre-emergence, 240 h, Preemergence, visual rating on 0 to 100 scale (0 no effect, 100 complete control), approx. 10 days, read-out: Plant response rating, Barnyardgrass)

O=C1NC[C@H](c2cccc(C(F)(F)F)c2)[C@H]1C(=O)Nc1ccccc1F [Compound 204, (3R,4S)—N-(2-fluorophenyl)-2-oxo-4-[3-(trifluoromethyl)phenyl]-3-pyrrolidinecarboxamide]
20: Plant response rating, Morningglory (morningglory; [6])
0: Morningglory plant response rating (morningglory; [9]) | Morningglory plant response rating (morningglory; [10]) | Plant response rating, Nutsedge, Yellow (nutsedge, yellow; [7]) | Plant response rating, Nutsedge, Yellow (nutsedge, yellow; [8]) | Plant response rating, Nutsedge, Yellow (nutsedge, yellow; [3]) | Plant response rating, Nutsedge, Yellow (nutsedge, yellow; [4]) | Nutsedge, Yellow plant response rating (nutsedge, yellow; [9]) | Nutsedge, Yellow plant response rating (nutsedge, yellow; [10]) | Plant response rating, Nutsedge, Yellow (nutsedge, yellow; [6]) | Plant response rating (scale of 0 to 100), Nutsedge, Yellow (nutsedge, yellow; Preemergence, 250 g ai/ha) | Plant response rating, Velvetleaf (velvetleaf; [7]) | Plant response rating, Velvetleaf (velvetleaf; [8]) | Plant response rating, Velvetleaf (velvetleaf; [3]) | Velvetleaf plant response rating (velvetleaf; [9]) | Velvetleaf plant response rating (velvetleaf; [10]) | Plant response rating, Velvetleaf (velvetleaf; [6]) | Plant response rating, Foxtail, Giant (foxtail, giant; [7]) | Plant response rating, Wheat (wheat (winter wheat); [7]) | Plant response rating, Wheat (wheat (winter wheat); [8]) | Plant response rating, Wheat (wheat (winter wheat); [3]) | Plant response rating, Wheat (wheat (winter wheat); [4]) | Wheat plant response rating (wheat (winter wheat); [9])
10: Plant response rating, Velvetleaf (velvetleaf; [4]) | Plant response rating, Foxtail, Giant (foxtail, giant; [8])
40: Plant response rating (scale of 0 to 100), Morningglory (morningglory; Preemergence, 250 g ai/ha)
95: Plant response rating, Foxtail, Giant (foxtail, giant; [6]) | Plant response rating (scale of 0 to 100), Foxtail, Giant (foxtail, giant; Preemergence, 250 g ai/ha)
35: Plant response rating, Morningglory (morningglory; [4]) | Plant response rating, Lambsquarters (lambsquarters; [7])
75: Plant response rating, Lambsquarters (lambsquarters; [3]) | Plant response rating, Lambsquarters (lambsquarters; [6])
100: Lambsquarters plant response rating (lambsquarters; [9]) | Lambsquarters plant response rating (lambsquarters; [10]) | Plant response rating (scale of 0 to 100), Lambsquarters (lambsquarters; Preemergence, 250 g ai/ha)
5: Plant response rating, Morningglory (morningglory; [7]) | Plant response rating, Morningglory (morningglory; [8])
30: Plant response rating (scale of 0 to 100), Velvetleaf (velvetleaf; Preemergence, 250 g ai/ha) | Plant response rating, Lambsquarters (lambsquarters; [4])
70: Wheat plant response rating (wheat (winter wheat); [10])
90%: pest or weed control at 125 g/ha (giant foxtail; Setaria faberi, post-emergence, 240 h, Postemergence, 0 to 100 scale, 0 is no effect, 100 is complete control, read-out: Plant response rating, Foxtail, Giant) | pest or weed control at 125 g/ha (giant foxtail; Setaria faberi, pre-emergence, 240 h, visual rating, 0 to 100 scale, 0 no effect, 100 complete control, approximately 10 days, read-out: Plant response rating, Foxtail, Giant) | pest or weed control at 500 g/ha (giant foxtail; Setaria faberi, pre-emergence, 240 h, preemergence, 500 g ai/ha, 0 to 100 scale, 0 is no effect and 100 is complete control, read-out: Plant response rating, Foxtail, Giant) | pest or weed control at 125 g/ha (barnyardgrass; Echinochloa crus-galli, post-emergence, 240 h, Postemergence, 0 to 100 scale, 0 is no effect, 100 is complete control, read-out: Plant response rating, Barnyardgrass) | pest or weed control at 125 g/ha (barnyardgrass; Echinochloa crus-galli, pre-emergence, 240 h, visual rating, 0 to 100 scale, 0 no effect, 100 complete control, approximately 10 days, read-out: Plant response rating, Barnyardgrass) | pest or weed control at 500 g/ha (barnyardgrass; Echinochloa crus-galli, pre-emergence, 240 h, preemergence, 500 g ai/ha, 0 to 100 scale, 0 is no effect and 100 is complete control, read-out: Plant response rating, Barnyardgrass)
90: Foxtail, Giant plant response rating (0 to 100 scale, 0 is no effect, 100 is complete control) (giant foxtail; Postemergence, 500 g ai/ha) | Plant response rating, Foxtail, Giant (foxtail, giant; [3]) | Plant response rating, Foxtail, Giant (foxtail, giant; [4]) | Foxtail, Giant plant response rating (foxtail, giant; [9]) | Foxtail, Giant plant response rating (foxtail, giant; [10]) | Plant response rating (scale of 0 to 100), Wheat (wheat (winter wheat); Preemergence, 250 g ai/ha) | Barnyardgrass plant response rating (0 to 100 scale, 0 is no effect, 100 is complete control) (barnyardgrass; Postemergence, 500 g ai/ha)
65: Plant response rating, Lambsquarters (lambsquarters; [8])
15: Plant response rating, Morningglory (morningglory; [3])
80: Corn plant response rating (0 to 100 scale, 0 is no effect, 100 is complete control) (corn; Postemergence, 500 g ai/ha) | Plant response rating, Wheat (wheat (winter wheat); [6])
60%: Corn plant response rating (crop injury, 0 = no effect, 100 = complete kill) at 125 g/ha (corn; Zea mays, post-emergence, 240 h, Postemergence, 125 g ai/ha, 0 to 100 scale, 0 is no effect, 100 is complete control)

— patent US10294202B2, “Pyrrolidinones as herbicides” (FMC Corporation, priority 2013, dated 2019)
